In patent US10159640B2, “Prebiotic oral care compositions containing amino acids” (COLGATE-PALMOLIVE COMPANY, priority 2013, dated 2018):

How the values were obtained:
Format in all cases: cell-based
[1] = tested on: beneficial oral bacteria and pathogenic oral bacteria; assay: Metabolic activity, whole panel: prebiotic effect; conditions: threshold value of 2
Protocol: Substrates that were able to increase the metabolic activity of at least one of the above beneficial bacteria while not or only minimally increasing the growth of the pathogenic bacteria are considered to be prebiotic substrates. The extent of metabolic activity of the tested bacteria in the presence of the above-mentioned dipeptides after 24 hours and 48 hours was investigated through a high throughput phenotype microarray system (PM) for microbial cells (Biolog Inc.). Each PM can contain up to 95 different biochemical compounds (e.g. di-peptides) that may act as substrates for bacteria as well as one negative control, not containing the substrates. Microarray plates were used in which the different wells of each plate were pre-loaded (by the manufacturer, Biolog Inc.) with different di-peptides to be tested. Each bacterial species was tested using a separate microarray plate. Thus, a single bacterial species was tested with a variety of dipeptides on each particular plate. The microarrays are based on redox technology, using cell respiration as a universal reporter. Active cell respiration results in the reduction of a tetrazolium dye and in the formation of a strong color—for example, when using the tetrazolium dye “Biolog Redox Dye Mix D”, the color changes from transparent/colourless to purple when the dye is reduced. The observation of this color change indicates which of the substrates improve the metabolic activity and health of the cells. Each bacterial species was collected from blood agar plates (incubated for 48 hours anaerobically at 37° C.) and transferred to an IF-0 Base inoculation fluid (Biolog Inc.), which is a nutritionally poor medium. The resulting cell suspension was adjusted to a transmittance of 42% (relative to the transmittance of the base inoculation fluid with no bacterial species present) at 492 nm using a BioRad SmartSpec 3000 Photometer (the adjustment being effected by adding either further inoculation fluid or further bacteria until the transmittance of 42% was achieved). A 1:5 dilution of this suspension was prepared by mixing 3 mL of the 42% transmittance cell suspension with 15 mL of an inoculation fluid (which inoculation fluid was formed by mixing 11.6 mL sterile water, 62.5 mL IF-0 base inoculation fluid and 0.9 mL of the tetrazolium dye “Biolog Redox Dye mix D”), resulting in a final cell density which was equal to 85% transmittance using a BioRad SmartSpec 3000 Photometer. 680 μL of a 2M sodium succinate/200 μM ferric citrate solution in distilled water was added to 68 mL of the 85% transmittance cell suspension and 100 μL of this mixture was added to each well (the various di-peptides being already present in powder form in the relevant wells of the plate as obtained from the supplier i.e. Biolog Inc.). All plates were incubated in an anaerobic atmosphere at 37° C. Color changes were measured spectrophotometrically at 492 nm (Thermo Scientific Multiskan Ascent) at 24 hrs and 48 hrs using the same plate at both time points. […] After 24 hrs and 48 hrs under continuous shaking in a Multiscan microplate reader, the optical density (OD) of the synthetic medium at 24 hours and 48 hours was measured (using the microplate reader) at a wavelength of 492 nm for each combination of bacterium/dipeptide, and for each of their respective controls (i.e. which contained the particular bacterium but no dipeptide). […] The experiment was carried out three times for each combination of bacterium with dipeptide, with each repeat being carried out on a different day (thus providing three biological replicas). The controls were also carried out three times, as above. The values shown are the average (mean) of the three single values obtained (as detailed above) for each combination of bacterium with dipeptide, at 24 hrs and at 48 hrs. […] This value was selected in order to exclude low-stimulating metabolites and avoid false positive results.

[2] = tested on: Streptococcus sobrinus; assay: Metabolic activity, Biolog phenotype microarray; conditions: control without dipeptide = 1
Protocol: (§1) The extent of metabolic activity of the tested bacteria in the presence of the above-mentioned dipeptides after 24 hours and 48 hours was investigated through a high throughput phenotype microarray system (PM) for microbial cells (Biolog Inc.). Each PM can contain up to 95 different biochemical compounds (e.g. di-peptides) that may act as substrates for bacteria as well as one negative control, not containing the substrates. Microarray plates were used in which the different wells of each plate were pre-loaded (by the manufacturer, Biolog Inc.) with different di-peptides to be tested. Each bacterial species was tested using a separate microarray plate. Thus, a single bacterial species was tested with a variety of dipeptides on each particular plate. The microarrays are based on redox technology, using cell respiration as a universal reporter. Active cell respiration results in the reduction of a tetrazolium dye and in the formation of a strong color—for example, when using the tetrazolium dye “Biolog Redox Dye Mix D”, the color changes from transparent/colourless to purple when the dye is reduced. The observation of this color change indicates which of the substrates improve the metabolic activity and health of the cells. Each bacterial species was collected from blood agar plates (incubated for 48 hours anaerobically at 37° C.) and transferred to an IF-0 Base inoculation fluid (Biolog Inc.), which is a nutritionally poor medium. The resulting cell suspension was adjusted to a transmittance of 42% (relative to the transmittance of the base inoculation fluid with no bacterial species present) at 492 nm using a BioRad SmartSpec 3000 Photometer (the adjustment being effected by adding either further inoculation fluid or further bacteria until the transmittance of 42% was achieved). A 1:5 dilution of this suspension was prepared by mixing 3 mL of the 42% transmittance cell suspension with 15 mL of an inoculation fluid (which inoculation fluid was formed by mixing 11.6 mL sterile water, 62.5 mL IF-0 base inoculation fluid and 0.9 mL of the tetrazolium dye “Biolog Redox Dye mix D”), resulting in a final cell density which was equal to 85% transmittance using a BioRad SmartSpec 3000 Photometer. 680 μL of a 2M sodium succinate/200 μM ferric citrate solution in distilled water was added to 68 mL of the 85% transmittance cell suspension and 100 μL of this mixture was added to each well (the various di-peptides being already present in powder form in the relevant wells of the plate as obtained from the supplier i.e. Biolog Inc.). All plates were incubated in an anaerobic atmosphere at 37° C. Color changes were measured spectrophotometrically at 492 nm (Thermo Scientific Multiskan Ascent) at 24 hrs and 48 hrs using the same plate at both time points. […] After 24 hrs and 48 hrs under continuous shaking in a Multiscan microplate reader, the optical density (OD) of the synthetic medium at 24 hours and 48 hours was measured (using the microplate reader) at a wavelength of 492 nm for each combination of bacterium/dipeptide, and for each of their respective controls (i.e. which contained the particular bacterium but no dipeptide). […] The experiment was carried out three times for each combination of bacterium with dipeptide, with each repeat being carried out on a different day (thus providing three biological replicas). The controls were also carried out three times, as above. The values shown are the average (mean) of the three single values obtained (as detailed above) for each combination of bacterium with dipeptide, at 24 hrs and at 48 hrs.

[3] = tested on: Actinomyces viscosus; assay: Metabolic activity, Biolog phenotype microarray; conditions: control without dipeptide = 1
Protocol: as §1

[4] = tested on: Streptococcus mitis; assay: Metabolic activity, Biolog phenotype microarray; conditions: control without dipeptide = 1
Protocol: as §1

[5] = tested on: Streptococcus gordonii; assay: Metabolic activity, Biolog phenotype microarray; conditions: control without dipeptide = 1
Protocol: as §1

[6] = tested on: Streptococcus mutans; assay: Metabolic activity, Biolog phenotype microarray; conditions: control without dipeptide = 1
Protocol: as §1

[7] = tested on: Streptococcus sanguinis; assay: Metabolic activity, Biolog phenotype microarray; conditions: control without dipeptide = 1
Protocol: as §1

[8] = tested on: Prevotella intermedia; assay: Metabolic activity, Biolog phenotype microarray; conditions: control without dipeptide = 1
Protocol: as §1

[9] = tested on: Tannerella forsythia; assay: Metabolic activity, Biolog phenotype microarray; conditions: control without dipeptide = 1
Protocol: as §1

[10] = tested on: Veillonella parvula; assay: Metabolic activity, Biolog phenotype microarray; conditions: control without dipeptide = 1
Protocol: as §1

[11] = tested on: Streptococcus salivarius; assay: Metabolic activity, Biolog phenotype microarray; conditions: control without dipeptide = 1
Protocol: as §1

[12] = tested on: Capnocytophaga sputigena; assay: Metabolic activity, Biolog phenotype microarray; conditions: control without dipeptide = 1
Protocol: as §1

[13] = tested on: Porphyromonas gingivalis; assay: Metabolic activity, Biolog phenotype microarray; conditions: control without dipeptide = 1
Protocol: as §1

[14] = tested on: Fusobacterium nucleatum; assay: Metabolic activity, Biolog phenotype microarray; conditions: control without dipeptide = 1
Protocol: as §1

[15] = tested on: Aggregatibacter actinomycetemcomitans; assay: Metabolic activity, Biolog phenotype microarray; conditions: control without dipeptide = 1
Protocol: as §1

[16] = tested on: Actinomyces naeslundii; assay: Metabolic activity, Biolog phenotype microarray; conditions: control without dipeptide = 1
Protocol: as §1

| Substance | prebiotic effects (metabolic activity) ([1]; 48 hrs) | metabolic activity: OD 492 nm divided by OD of control ([2]; 24 hrs) | metabolic activity: OD 492 nm divided by OD of control ([2]; 48 hrs) | metabolic activity: OD 492 nm divided by OD of control ([3]; 24 hrs) | metabolic activity: OD 492 nm divided by OD of control ([3]; 48 hrs) | metabolic activity: OD 492 nm divided by OD of control ([4]; 24 hrs) | metabolic activity: OD 492 nm divided by OD of control ([4]; 48 hrs) | metabolic activity: OD 492 nm divided by OD of control ([5]; 24 hrs) | metabolic activity: OD 492 nm divided by OD of control ([5]; 48 hrs) | metabolic activity: OD 492 nm divided by OD of control ([6]; 24 hrs) | metabolic activity: OD 492 nm divided by OD of control ([6]; 48 hrs) | metabolic activity: OD 492 nm divided by OD of control ([7]; 24 hrs) | metabolic activity: OD 492 nm divided by OD of control ([7]; 48 hrs) | metabolic activity: OD 492 nm divided by OD of control ([8]; 24 hrs) | metabolic activity: OD 492 nm divided by OD of control ([8]; 48 hrs) | metabolic activity: OD 492 nm divided by OD of control ([9]; 24 hrs) | metabolic activity: OD 492 nm divided by OD of control ([9]; 48 hrs) | metabolic activity: OD 492 nm divided by OD of control ([10]; 24 hrs) | metabolic activity: OD 492 nm divided by OD of control ([10]; 48 hrs) | metabolic activity: OD 492 nm divided by OD of control ([11]; 24 hrs) | other results |
| --- | --- | --- | --- | --- | --- | --- | --- | --- | --- | --- | --- | --- | --- | --- | --- | --- | --- | --- | --- | --- | --- |
| Glu-Trp | exhibited prebiotic effects | 1.0018 | 0.9874 | 1.5845 | 2.1016 | 0.9457 | 0.9396 | 1.1537 | 1.4320 | 0.9492 | 1.0170 | 0.9983 | 1.0208 | 1.0170 | 0.9148 | 0.9320 | 0.9303 | 0.8378 | 0.7873 | 1.0068 | metabolic activity: OD 492 nm divided by OD of control ([11]; 48 hrs): 0.9525; metabolic activity: OD 492 nm divided by OD of control ([12]; 24 hrs): 1.7818; metabolic activity: OD 492 nm divided by OD of control ([12]; 48 hrs): 1.4150; metabolic activity: OD 492 nm divided by OD of control ([13]; 24 hrs): 0.9385; metabolic activity: OD 492 nm divided by OD of control ([13]; 48 hrs): 0.8770; metabolic activity: OD 492 nm divided by OD of control ([14]; 24 hrs): 0.9011; metabolic activity: OD 492 nm divided by OD of control ([14]; 48 hrs): 0.8364; metabolic activity: OD 492 nm divided by OD of control ([15]; 24 hrs): 0.9494; metabolic activity: OD 492 nm divided by OD of control ([15]; 48 hrs): 0.8665; metabolic activity: OD 492 nm divided by OD of control ([16]; 24 hrs): 1.1008; metabolic activity: OD 492 nm divided by OD of control ([16]; 48 hrs): 1.2040 |
| Ser-Asn | exhibited prebiotic effects | 1.2753 | 1.7028 | 1.7174 | 2.0421 | 1.0807 | 1.5785 | 0.8814 | 1.3337 | 1.2715 | 1.7588 | 1.1935 | 1.5794 | 1.1002 | 1.1329 | 1.2030 | 1.4354 | 1.1101 | 1.1143 | 1.1917 | prebiotic effects (metabolic activity) ([1]; 24 hrs): exhibited prebiotic effects; metabolic activity: OD 492 nm divided by OD of control ([11]; 48 hrs): 1.5886; metabolic activity: OD 492 nm divided by OD of control ([12]; 24 hrs): 2.2418; metabolic activity: OD 492 nm divided by OD of control ([12]; 48 hrs): 1.5699; metabolic activity: OD 492 nm divided by OD of control ([13]; 24 hrs): 1.0079; metabolic activity: OD 492 nm divided by OD of control ([13]; 48 hrs): 1.2165; metabolic activity: OD 492 nm divided by OD of control ([14]; 24 hrs): 1.2165; metabolic activity: OD 492 nm divided by OD of control ([14]; 48 hrs): 1.4289; metabolic activity: OD 492 nm divided by OD of control ([15]; 24 hrs): 1.3093; metabolic activity: OD 492 nm divided by OD of control ([15]; 48 hrs): 1.7285; metabolic activity: OD 492 nm divided by OD of control ([16]; 24 hrs): 1.3199; metabolic activity: OD 492 nm divided by OD of control ([16]; 48 hrs): 1.6167 |
